# Test results from ChEMBL document CHEMBL6120973 (J Med Chem, 2024).
# pEC50, pIC50: −log10 of the molar value.
# Legend:
# [1] = test system: Human immunodeficiency virus 1; assay: Antiviral activity against wildtype HIV-1 IIIB infected in human MT4 cells assessed as protection against virus-induced cytopathic effect incubated for 5 days by MTT assay; format: functional, organism-based; conditions: Human immunodeficiency virus 1, IIIB, MT4, 120 h
# [2] = Cytotoxicity against human MT4 cells assessed as reduction in cell viability measured after 5 days by MTT assay; conditions: MT4 cells
# [3] = test system: Human immunodeficiency virus 1; assay: Potency index, ratio of 4-(8-(3-nitrophenyl)-1,7-naphthyridin-6-yl)benzoic acid MIC to test compound MIC for antiviral activity against wildtype HIV-1 IIIB infected in human MT4 cells assessed as protection against virus-induced cytopathic effect incubated for 5 days by MTT assay; format: functional; conditions: time 5 day
# [4] = test system: Human immunodeficiency virus 1; assay: Antiviral activity against HIV-1 harboring RT L100I mutant infected in human MT4 cells assessed as protection against virus-induced cytopathic effect incubated for 5 days by MTT assay; format: functional, organism-based; conditions: Human immunodeficiency virus 1, MT4, 120 h
# [5] = test system: Human immunodeficiency virus 1; assay: Antiviral activity against HIV-1 harboring RT K103N mutant infected in human MT4 cells assessed as protection against virus-induced cytopathic effect incubated for 5 days by MTT assay; format: functional, organism-based; conditions: Human immunodeficiency virus 1, MT4, 120 h
# [6] = test system: Human immunodeficiency virus 1; assay: Antiviral activity against HIV-1 harboring RT Y181C mutant infected in human MT4 cells assessed as protection against virus-induced cytopathic effect incubated for 5 days by MTT assay; format: functional, organism-based; conditions: Human immunodeficiency virus 1, MT4, 120 h
# [7] = test system: Human immunodeficiency virus 1; assay: Antiviral activity against HIV-1 harboring RT Y188L mutant infected in human MT4 cells assessed as protection against virus-induced cytopathic effect incubated for 5 days by MTT assay; format: functional, organism-based; conditions: Human immunodeficiency virus 1, MT4, 120 h
# [8] = test system: Human immunodeficiency virus 1; assay: Antiviral activity against HIV-1 harboring RT F227L/V106A double mutant infected in human MT4 cells assessed as protection against virus-induced cytopathic effect incubated for 5 days by MTT assay; format: functional, organism-based; conditions: Human immunodeficiency virus 1, MT4, 120 h
# [9] = test system: Human immunodeficiency virus 1; assay: Antiviral activity against HIV-1 harboring RT K103N/Y181C double mutant infected in human MT4 cells assessed as protection against virus-induced cytopathic effect incubated for 5 days by MTT assay; format: functional, organism-based; conditions: Human immunodeficiency virus 1, MT4, 120 h
# [10] = molecular target: Human immunodeficiency virus type 1 reverse transcriptase (Human immunodeficiency virus 1, UniProt Q72547); assay: Inhibition of recombinant wild type HIV-1 Reverse transcriptase incubated for 40 mins by Pico-green reagent based fluorescence analysis
# Cytochrome P450 1A2 = molecular target: T1, Cytochrome P450 1A2 (Homo sapiens, UniProt P05177); assay: Inhibition of CYP1A2 in human liver microsomes preincubated for 10 mins followed by NADPH addition and measured after 15 mins by LC/MS/MS analysis
# T1 sequence (P05177 whole entry): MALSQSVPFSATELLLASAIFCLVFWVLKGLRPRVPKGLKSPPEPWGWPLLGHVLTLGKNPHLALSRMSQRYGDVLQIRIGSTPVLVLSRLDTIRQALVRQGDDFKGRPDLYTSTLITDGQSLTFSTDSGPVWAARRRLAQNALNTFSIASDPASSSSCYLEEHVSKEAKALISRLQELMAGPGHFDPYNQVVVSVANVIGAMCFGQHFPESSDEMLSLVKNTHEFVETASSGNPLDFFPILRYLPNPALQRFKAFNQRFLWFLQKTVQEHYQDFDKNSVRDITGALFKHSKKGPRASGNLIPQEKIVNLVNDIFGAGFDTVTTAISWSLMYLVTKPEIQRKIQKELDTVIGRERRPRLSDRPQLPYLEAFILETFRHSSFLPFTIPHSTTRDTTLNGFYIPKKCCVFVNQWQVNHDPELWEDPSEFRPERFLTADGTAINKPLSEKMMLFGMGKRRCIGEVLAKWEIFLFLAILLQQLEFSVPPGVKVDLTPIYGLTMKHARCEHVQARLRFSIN
# Cytochrome P450 2C19 = Cytochrome P450 2C19 (Homo sapiens, UniProt P33261); assay: Inhibition of CYP2C19 in human liver microsomes preincubated for 10 mins followed by NADPH addition and measured after 15 mins by LC/MS/MS analysis
# Cytochrome P450 2D6 = Cytochrome P450 2D6 (Homo sapiens, UniProt P10635); assay: Inhibition of CYP2D6 in human liver microsomes preincubated for 10 mins followed by NADPH addition and measured after 15 mins by LC/MS/MS analysis
# Cytochrome P450 3A4 [11] = molecular target: T2, Cytochrome P450 3A4 (Homo sapiens, UniProt P08684); assay: Inhibition of CYP3A4 in human liver microsomes using midazolam as substrate preincubated for 10 mins followed by NADPH addition and measured after 15 mins by LC/MS/MS analysis
# Cytochrome P450 3A4 [12] = molecular target: T2, Cytochrome P450 3A4; assay: Inhibition of CYP3A4 in human liver microsomes using testosterone as substrate preincubated for 10 mins followed by NADPH addition and measured after 15 mins by LC/MS/MS analysis
# [13] = Metabolic stability in dog liver microsomes assessed as half-life at 0.1 uM preincubated for 10 mins followed by NADPH addition and measured upto 60 mins by LC-MS/MS analysis; format: ADME, Canis lupus familiaris, Microsome; conditions: time < 70 min
# [14] = Solubility of compound in phosphate buffer at pH 2.0 measured after 24 hrs by HPLC analysis; format: physicochemical
# [15] = Solubility of compound in phosphate buffer at pH 7.4 measured after 24 hrs by HPLC analysis; format: physicochemical
# [16] = Solubility of compound in Watson's distilled pure water measured after 24 hrs by HPLC analysis; format: physicochemical
# [17] = Acute toxicity in female ICR mouse assessed as effect on body weight at 2000 mg/kg, IG measured after 14 days; format: organism-based; conditions: in vivo, po, 336 h, time 14 day
# [18] = Acute toxicity in male ICR mouse assessed as effect on behavior at 2000 mg/kg, IG measured after 14 days; format: organism-based; conditions: in vivo, po, 336 h, time 14 day
# [19] = Acute toxicity in female ICR mouse assessed as effect on behavior at 2000 mg/kg, IG measured after 14 days; format: organism-based; conditions: in vivo, po, 336 h, time 14 day
# [20] = Acute toxicity in male ICR mouse assessed as effect on pathological damage in heart at 2000 mg/kg, IG measured after 14 days by H and E staining based analysis; format: organism-based; conditions: in vivo, po, 336 h, time 14 day
# [21] = Acute toxicity in male ICR mouse assessed as effect on pathological damage in liver at 2000 mg/kg, IG measured after 14 days by H and E staining based analysis; format: organism-based; conditions: in vivo, po, 336 h, time 14 day
# [22] = Acute toxicity in male ICR mouse assessed as effect on pathological damage in spleen at 2000 mg/kg, IG measured after 14 days by H and E staining based analysis; format: organism-based; conditions: in vivo, po, 336 h, time 14 day
# [23] = Acute toxicity in male ICR mouse assessed as effect on pathological damage in kidney at 2000 mg/kg, IG measured after 14 days by H and E staining based analysis; format: organism-based; conditions: in vivo, po, 336 h, time 14 day
# [24] = Acute toxicity in male ICR mouse assessed as effect on pathological damage in brain at 2000 mg/kg, IG measured after 14 days by H and E staining based analysis; format: organism-based; conditions: in vivo, po, 336 h, time 14 day
# [25] = Acute toxicity in female ICR mouse assessed as effect on pathological damage in heart at 2000 mg/kg, IG measured after 14 days by H and E staining based analysis; format: organism-based; conditions: in vivo, po, 336 h, time 14 day
# [26] = Acute toxicity in female ICR mouse assessed as effect on pathological damage in liver at 2000 mg/kg, IG measured after 14 days by H and E staining based analysis; format: organism-based; conditions: in vivo, po, 336 h, time 14 day
# [27] = Acute toxicity in female ICR mouse assessed as effect on pathological damage in spleen at 2000 mg/kg, IG measured after 14 days by H and E staining based analysis; format: organism-based; conditions: in vivo, po, 336 h, time 14 day
# T2 sequence (P08684 whole entry): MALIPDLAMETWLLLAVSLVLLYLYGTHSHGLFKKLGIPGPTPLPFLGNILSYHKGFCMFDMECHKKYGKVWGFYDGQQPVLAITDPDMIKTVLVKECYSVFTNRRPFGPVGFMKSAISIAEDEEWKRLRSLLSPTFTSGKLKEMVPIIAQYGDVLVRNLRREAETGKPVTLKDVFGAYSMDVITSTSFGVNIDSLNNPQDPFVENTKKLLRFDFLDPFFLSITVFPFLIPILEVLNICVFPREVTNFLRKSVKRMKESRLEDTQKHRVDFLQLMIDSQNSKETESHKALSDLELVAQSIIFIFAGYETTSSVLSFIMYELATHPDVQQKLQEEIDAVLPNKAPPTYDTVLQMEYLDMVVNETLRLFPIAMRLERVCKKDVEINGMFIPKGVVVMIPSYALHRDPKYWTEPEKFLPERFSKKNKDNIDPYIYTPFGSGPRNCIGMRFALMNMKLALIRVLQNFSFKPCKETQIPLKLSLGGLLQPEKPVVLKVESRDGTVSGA
# Sequence of Cytochrome P450 2C19 (P33261 whole entry): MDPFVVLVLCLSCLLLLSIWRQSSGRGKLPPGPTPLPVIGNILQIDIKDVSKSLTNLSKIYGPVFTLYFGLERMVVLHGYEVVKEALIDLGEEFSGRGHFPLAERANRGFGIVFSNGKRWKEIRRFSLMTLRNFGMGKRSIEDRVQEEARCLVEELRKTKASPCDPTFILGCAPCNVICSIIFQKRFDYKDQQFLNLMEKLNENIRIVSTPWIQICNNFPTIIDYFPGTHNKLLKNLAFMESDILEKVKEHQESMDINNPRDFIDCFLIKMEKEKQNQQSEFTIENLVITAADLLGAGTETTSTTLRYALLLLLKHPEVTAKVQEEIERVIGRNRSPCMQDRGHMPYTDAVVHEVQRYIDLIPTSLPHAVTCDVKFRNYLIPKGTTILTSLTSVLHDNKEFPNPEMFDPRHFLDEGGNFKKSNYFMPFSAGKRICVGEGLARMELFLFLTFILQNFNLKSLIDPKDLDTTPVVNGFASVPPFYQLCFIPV
# Sequence of Cytochrome P450 2D6 (P10635 whole entry): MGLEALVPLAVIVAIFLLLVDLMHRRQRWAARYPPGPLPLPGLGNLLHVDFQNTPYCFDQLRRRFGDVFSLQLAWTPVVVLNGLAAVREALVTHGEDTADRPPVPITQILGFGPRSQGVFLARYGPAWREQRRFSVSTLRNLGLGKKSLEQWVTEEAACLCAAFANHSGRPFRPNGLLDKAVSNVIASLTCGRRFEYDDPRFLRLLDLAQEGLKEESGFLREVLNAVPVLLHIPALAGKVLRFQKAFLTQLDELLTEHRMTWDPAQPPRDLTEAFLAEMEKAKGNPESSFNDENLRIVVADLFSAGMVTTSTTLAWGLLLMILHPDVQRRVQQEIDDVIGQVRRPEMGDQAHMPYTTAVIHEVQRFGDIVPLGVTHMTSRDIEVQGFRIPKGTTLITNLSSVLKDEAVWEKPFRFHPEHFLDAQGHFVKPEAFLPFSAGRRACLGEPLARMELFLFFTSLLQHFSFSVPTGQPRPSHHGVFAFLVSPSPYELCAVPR
smiles,measurement,setting,value
Cc1cc(-c2ccncc2)cc(C)c1Nc1nc(Nc2ccc(C#N)cc2)ncc1-c1cn[nH]c1,pEC50,[1],8.30
same,CC50 at 120 h,[2],> 273 µM
same,Ratio,[3],37
same,pEC50,[4],8.05
same,pEC50,[5],8.15
same,pEC50,[6],7.89
same,pEC50,[7],7.89
same,pEC50,[8],7.10
same,pEC50,[9],7.38
same,pIC50,[10],7.31
same,pIC50,Cytochrome P450 1A2,< 4.30
same,pIC50,Cytochrome P450 2C19,< 4.30
same,pIC50,Cytochrome P450 2D6,< 4.30
same,pIC50,Cytochrome P450 3A4 [11],< 4.30
same,pIC50,Cytochrome P450 3A4 [12],< 4.30
same,half-life at 0.1 µM,[13],58.8 min
same,solubility at 24 h,[14],1190 µg/mL
same,solubility at 24 h,[15],< 1 µg/mL
same,solubility at 24 h,[16],1.3 µg/mL
same,Activity,[17],Non-toxic
same,Activity,[18],Non-toxic
same,Activity,[19],Non-toxic
same,Activity,[20],Non-toxic
same,Activity,[21],Non-toxic
same,Activity,[22],Non-toxic
same,Activity,[23],Non-toxic
same,Activity,[24],Non-toxic
same,Activity,[25],Non-toxic
same,Activity,[26],Non-toxic
same,Activity,[27],Non-toxic
